According to patent publication US6953786B2, “Compositions comprising plant-derived polyphenolic compounds and inhibitors of reactive oxygen species and methods of using thereof” (The Regents of the University of California, priority 2002, dated 2005):
Residues, ends and D or L forms follow the SMILES beside them. *: point of attachment. Cbz = O=C(OCc1ccccc1)*

Tests used:
[1] = system: NF-κB; test: NF-κB DNA binding activity (EMSA); assay type: cell-based, rat; conditions: BSp73AS, 6 hours; polyphenols 100 μM, MG-132 20 μM
Protocol: In order to determine the role of activated NF-κB in the regulation of apoptosis caused by the polyphenolic compound, the following assay was conducted. BSp73AS cells were cultured for 6 hours and Mia PACA-2 cells were cultured in the absence of serum or growth factors for 24 hours in the absence (controls) or presence of rutin, quercetin, trans-resveratrol, or genistein, each at 100 μM and 20 μM proteosome inhibitor MG-132. Nuclear proteins were isolated and analyzed for NF-κB DNA binding activity with electrophoretic mobility shift assay (EMSA). Specifically, aliquots of nuclear extracts with equal amount of protein, about 2 to about 10 μg, were mixed in 20 μl reactions with a buffer comprising 10 mM HEPES (pH 7.6), 50 mM KCl, 0.1 mM EDTA, 1 mM DTT, 10% (vol/vol) glycerol and 3 μg poly[d (I-C)]. After aliquots were equilibrated on ice for 5 minutes, binding reactions were stared by addition of 20-60,000 counts/min (20 fM) of ^32P-labeled DNA probes and allowed to proceed for 25-30 minutes at room temperature or up to 1 hour on ice. The oligonucleotide probe containing the κB binding motif (underlined) was annealed to the complementary oligonucleotide with a 5′-G overhang and end-labeled using Klenow DNA polymerase I. The samples were electrophoresed at room temperature in 0.5×TBE buffer (1×TBE 89 mM Tris base, 89 mM boric acid and 2 mM EDTA) on nondenaturing 4.5% polyacrylamide gel at 200 V. Gels were dried and directly analyzed in the PhosphorImager (Molecular Dynamics, Sunnyvale, Calif.). The experiment was repeated twice.

[2] = system: NF-κB; test: NF-κB DNA binding activity (EMSA / gel shift); assay type: cell-based, human; conditions: Mia PACA-2, 24 hours, no serum; polyphenols 100 μM, MG-132 20 μM
Protocol: In order to determine the role of activated NF-κB in the regulation of apoptosis caused by the polyphenolic compound, the following assay was conducted. BSp73AS cells were cultured for 6 hours and Mia PACA-2 cells were cultured in the absence of serum or growth factors for 24 hours in the absence (controls) or presence of rutin, quercetin, trans-resveratrol, or genistein, each at 100 μM and 20 μM proteosome inhibitor MG-132. Nuclear proteins were isolated and analyzed for NF-κB DNA binding activity with electrophoretic mobility shift assay (EMSA).
Specifically, aliquots of nuclear extracts with equal amount of protein, about 2 to about 10 μg, were mixed in 20 μl reactions with a buffer comprising 10 mM HEPES (pH 7.6), 50 mM KCl, 0.1 mM EDTA, 1 mM DTT, 10% (vol/vol) glycerol and 3 μg poly[d (I-C)]. After aliquots were equilibrated on ice for 5 minutes, binding reactions were stared by addition of 20-60,000 counts/min (20 fM) of ^32P-labeled DNA probes and allowed to proceed for 25-30 minutes at room temperature or up to 1 hour on ice. The oligonucleotide probe
containing the κB binding motif (underlined) was annealed to the complementary oligonucleotide with a 5′-G overhang and end-labeled using Klenow DNA polymerase I. The samples were electrophoresed at room temperature in 0.5×TBE buffer (1×TBE 89 mM Tris base, 89 mM boric acid and 2 mM EDTA) on nondenaturing 4.5% polyacrylamide gel at 200 V. Gels were dried and directly analyzed in the PhosphorImager (Molecular Dynamics, Sunnyvale, Calif.). The experiment was repeated twice.
To study the effects of combinations of DPI and polyphenolic compounds on serum-induced activation of NF-κB and protection from apoptosis, the following assay was conducted. Mia PACA-2 cells were cultured for 72 hours in the presence of serum with or without 100 μM trans-resveratrol, 15 μM DPI, a combination of trans-resveratrol, 100 μM genistein, or a combination of genistein and DPI. NF-κB binding activity was measured in nuclear extracts by gel shift assay as described above.
To determine the effects of LY29400 and DPI on NF-κB activation, Mia PACA-2 cells were cultured for 72 hours in the presence of serum and 15 μM DPI with or without 50 μM LY294002. NF-κB DNA binding activity was measured in nuclear extracts by gel shift assay as described above.

[3] = system: BSp73AS and Mia PACA-2 cells; test: Caspase-3 activity and annexin staining with MG-132 (FIG. 14C); assay type: cell-based; conditions: MG-132 20 μM

## CC(C)C[C@@H](C=O)NC(=O)[C@H](CC(C)C)NC(=O)[C@H](CC(C)C)NC(=O)OCc1ccccc1 [MG-132, reference compound] (Cbz-Leu-Leu-Leu-aldehyde)
[1]
  NF-κB activation (DNA binding): blocks NF-κB activation
[2]
  NF-κB activation (DNA binding): blocks NF-κB activation
[3]
  caspase-3 activity: small increase in caspase-3 activity
[3]; polyphenols 100 μM
  apoptosis (annexin staining): does not increase apoptosis rates to the same extent as trans-resveratrol
